pIC50: −log10 of the molar value. The source made the active and inactive calls. The calls are words filed in the database; no cut-off is given here.
Legend:
ACHN = assay: Growth inhibition of human ACHN cells after 48 hrs by sulforhodamine B assay; format: functional
CAKI-1 = assay: Growth inhibition of human CAKI-1 cells after 48 hrs by sulforhodamine B assay; format: functional; conditions: CAKI-1, 48 h
A549 [1] = assay: Cell cycle arrest in human A549 cells assessed as cell accumulation at G0/G1 phase at 4 uM after 48 hrs by propidium iodide staining based flow cytometry (reference value: 70.15%); format: functional
A549 [2] = assay: Cell cycle arrest in human A549 cells assessed as cell accumulation at G2/M phase at 2 uM after 48 hrs by propidium iodide staining based flow cytometry (reference value: 23.75%); format: functional
[3] = Inhibition of tubulin polymerization at 3 uM after 1 hr by fluorescence assay
Tubulin (Homo sapiens) = Tubulin (Homo sapiens) (UniProt P68371+Q9H4B7+P0DPH7+P68366+Q13509+Q71U36+P04350+Q3ZCM7+P07437+P68363+Q9BQE3+Q6PEY2+Q13885+Q9BVA1+Q9BUF5); assay: Inhibition of tubulin polymerization in human A549 cells assessed as disrupted microtubule organization at 2 uM after 48 hrs by immunohistochemistry analysis; format: cell-based
A549 [4] = assay: Induction of apoptosis in human A549 cells assessed as increase in caspase3 activity using AFC-conjugated Ac-DEVD as substrate at 2 uM after 48 hrs by fluorescence assay relative to control; format: functional
A549 [5] = assay: Induction of apoptosis in human A549 cells assessed as early apoptotic cells at 2 uM after 48 hrs by annexin-V FITC/propidium iodide staining based FACS analysis; format: functional
HT-29 [6] = assay: Cytotoxicity against human HT-29 cells after 48 hrs by MTT assay; format: functional, cell-based; conditions: HT-29, 48 h, read-out: IC50
K562 = assay: Growth inhibition of human K562 cells after 48 hrs by sulforhodamine B assay; format: functional; conditions: K562, 48 h
MOLT-4 = assay: Growth inhibition of human MOLT4 cells after 48 hrs by sulforhodamine B assay; format: functional; conditions: MOLT-4, 48 h
SR = assay: Growth inhibition of human SR cells after 48 hrs by sulforhodamine B assay; format: functional
EKVX = assay: Growth inhibition of human EKVX cells after 48 hrs by sulforhodamine B assay; format: functional
HOP-62 = assay: Growth inhibition of human HOP62 cells after 48 hrs by sulforhodamine B assay; format: functional; conditions: HOP-62, 48 h
NCI-H522 = assay: Growth inhibition of human NCI-H522 cells after 48 hrs by sulforhodamine B assay; format: functional; conditions: NCI-H522, 48 h
HCT-15 = assay: Growth inhibition of human HCT15 cells after 48 hrs by sulforhodamine B assay; format: functional; conditions: HCT-15, 48 h
HT-29 [7] = assay: Growth inhibition of human HT-29 cells after 48 hrs by sulforhodamine B assay; format: functional; conditions: HT-29, 48 h
KM12 = assay: Growth inhibition of human KM12 cells after 48 hrs by sulforhodamine B assay; format: functional; conditions: KM12, 48 h
PC-3 = assay: Growth inhibition of human PC3 cells after 48 hrs by sulforhodamine B assay; format: functional; conditions: PC-3, 48 h
Hs-578T = assay: Growth inhibition of human Hs578T cells after 48 hrs by sulforhodamine B assay; format: functional
BT-549 = assay: Growth inhibition of human BT549 cells after 48 hrs by sulforhodamine B assay; format: functional; conditions: BT-549, 48 h
T47D = assay: Growth inhibition of human T47D cells after 48 hrs by sulforhodamine B assay; format: functional
MDA-MB-468 = assay: Growth inhibition of human MDA-MB-468 cells after 48 hrs by sulforhodamine B assay; format: functional; conditions: MDA-MB-468, 48 h
SF-268 = assay: Growth inhibition of human SF268 cells after 48 hrs by sulforhodamine B assay; format: functional; conditions: SF-268, 48 h
SF-295 = assay: Growth inhibition of human SF295 cells after 48 hrs by sulforhodamine B assay; format: functional; conditions: SF-295, 48 h
UACC-62 = assay: Growth inhibition of human UACC62 cells after 48 hrs by sulforhodamine B assay; format: functional; conditions: UACC-62, 48 h
IGROV-1 = assay: Growth inhibition of human IGROV1 cells after 48 hrs by sulforhodamine B assay; format: functional; conditions: IGROV-1, 48 h
OVCAR-4 = assay: Growth inhibition of human OVCAR4 cells after 48 hrs by sulforhodamine B assay; format: functional; conditions: OVCAR-4, 48 h
OVCAR-5 = assay: Growth inhibition of human OVCAR5 cells after 48 hrs by sulforhodamine B assay; format: functional; conditions: OVCAR-5, 48 h
OVCAR-8 = assay: Growth inhibition of human OVCAR8 cells after 48 hrs by sulforhodamine B assay; format: functional; conditions: OVCAR-8, 48 h
SK-OV-3 = assay: Growth inhibition of human SKOV3 cells after 48 hrs by sulforhodamine B assay; format: functional; conditions: SK-OV-3, 48 h
MCF7 = assay: cells; conditions: Homo sapiens, MCF7, 48 h
Description: Cytotoxicity against human MCF7 cells after 48 hrs by MTT assay

Question: Which GI50 (ACHN) does the source give for COc1ccc(/C=C/C(=O)c2cc(OC)c(OC)c(OC)c2)cc1OCC(=O)Nc1nc2ccc(OC(F)(F)F)cc2s1 here?
Answer: Its GI50 is 1620 nM.

Question: What about the GI50 (CAKI-1) of the same compound?
Answer: Its GI50 is 2200 nM.

Question: And the Activity (A549 [1])?
Answer: Its Activity is 8.68%.

Question: What about the Activity (A549 [2]) of the same compound?
Answer: The Activity was 80.73%.

Question: What about the inhibition [3] of the same compound?
Answer: The inhibition was 63.1%.

Question: What about the inhibition (Tubulin (Homo sapiens)) of the same compound?
Answer: Its inhibition is “Active”.

Question: And the “fold change (FC)” value (A549 [4])?
Answer: The value was 4.

Question: What about the Activity (A549 [5]) of the same compound?
Answer: Its Activity is 1.3%.

Question: What about the pIC50 (HT-29 [6]) of the same compound?
Answer: The pIC50 was 5.96.

Question: What about the GI50 (K562) of the same compound?
Answer: The GI50 was 430 nM.

Question: And the GI50 (MOLT-4)?
Answer: The GI50 was 2890 nM.

Question: What about the GI50 (SR) of the same compound?
Answer: Its GI50 is 390 nM.

Question: And the GI50 (EKVX)?
Answer: The GI50 was 5110 nM.

Question: And the GI50 (HOP-62)?
Answer: The GI50 was 2120 nM.

Question: What about the GI50 (NCI-H522) of the same compound?
Answer: The GI50 was 670 nM.

Question: And the GI50 (HCT-15)?
Answer: The GI50 was 400 nM.

Question: What about the GI50 (HT-29 [7]) of the same compound?
Answer: Its GI50 is 3660 nM.

Question: And the GI50 (KM12)?
Answer: Its GI50 is 1510 nM.

Question: What about the GI50 (PC-3) of the same compound?
Answer: Its GI50 is 3140 nM.

Question: What about the GI50 (Hs-578T) of the same compound?
Answer: Its GI50 is 3080 nM.

Question: What about the GI50 (BT-549) of the same compound?
Answer: The GI50 was 2710 nM.

Question: What about the GI50 (T47D) of the same compound?
Answer: The GI50 was 3080 nM.

Question: What about the GI50 (MDA-MB-468) of the same compound?
Answer: The GI50 was 3520 nM.

Question: And the GI50 (SF-268)?
Answer: Its GI50 is 1200 nM.

Question: And the GI50 (SF-295)?
Answer: The GI50 was 2210 nM.

Question: What about the GI50 (UACC-62) of the same compound?
Answer: Its GI50 is 9520 nM.

Question: What about the GI50 (IGROV-1) of the same compound?
Answer: The GI50 was 2540 nM.

Question: What about the GI50 (OVCAR-4) of the same compound?
Answer: The GI50 was 2070 nM.

Question: And the GI50 (OVCAR-5)?
Answer: The GI50 was 4760 nM.

Question: And the GI50 (OVCAR-8)?
Answer: The GI50 was 1540 nM.

Question: And the GI50 (SK-OV-3)?
Answer: Its GI50 is 2160 nM.

Question: What about the pIC50 (MCF7) of the same compound?
Answer: The pIC50 was 5.48.

Source: ChEMBL document CHEMBL2034833, “Synthesis of chalcone-amidobenzothiazole conjugates as antimitotic and apoptotic inducing agents” (Bioorg Med Chem, 2012)
